Laboratory results published in article PMC9284491 (Nature Communications, 2022).
“Also recorded” adds a separate entry of the source.

Test: Treatment-emergent adverse events (MedDRA, NCI-CTCAE v4.03), safety populations
Type: in vivo, human
Experimental: Overall safety in Parts A and B was assessed by tabulating TEAEs, coded using the Medical Dictionary for Regulatory Activities (MedDRA) version 22.1, and graded according to NCI-CTCAE v4.03 criteria. TEAEs were classified as related or unrelated to amcenestrant therapy based upon the local investigating physician’s clinical judgment. The safety population included all patients exposed to at least one dose of the study treatment. Results were analyzed using descriptive statistics.

## O=C(O)c1ccc2c(c1)CCCC(c1ccc(Cl)cc1Cl)=C2c1ccc(O[C@H]2CCN(CCCF)C2)cc1 [amcenestrant, 6-(2,4-Dichlorophenyl)−5-[4-[(3S)−1-(3-fluoropropyl)pyrrolidin-3-yl]oxyphenyl]−8,9-dihydro-7H-benzo[7]annulene-2-carboxylic acid]
300 mg BID, 6 participants
  TEAE diarrhea: 3 n
  participants with at least 1 TEAE regardless of relationship: 6 participants
Part A
  TEAE leading to treatment discontinuation: No TEAE led to treatment discontinuation
Part A (n = 16)
  treatment-related TEAE asthenia, patients: 18.8%
  treatment-related TEAE constipation, patients: 18.8%
  treatment-related TEAE decreased appetite, patients: 18.8%
  treatment-related TEAE diarrhea, patients: 25.0%
  treatment-related TEAE hot flush, patients: 31.3%
  treatment-related TEAE nausea, patients: 25.0%
  treatment-related TEAE night sweats, patients: 18.8%
Part A, 20-600 mg QD (N = 16)
  Any TEAE, TEAEs, All grades: 16 (100) n (%)
  Any TEAE, TEAEs, Grade 1: 5 (31.3) n (%)
  Any TEAE, TEAEs, Grade 2: 7 (43.8) n (%)
  Any TEAE, TEAEs, Grade ≥3: 4 (25.0) n (%)
  Any TEAE, Treatment-related TEAEs, All Grades: 13 (81.3) n (%)
  Any TEAE, Treatment-related TEAEs, Grade 1: 10 (62.5) n (%)
  Any TEAE, Treatment-related TEAEs, Grade 2: 3 (18.8) n (%)
  Any TEAE, Treatment-related TEAEs, Grade ≥3: 0 n (%)
  Arthralgia, TEAEs, All grades: 5 (31.3) n (%)
  Arthralgia, TEAEs, Grade 1: 2 (12.5) n (%)
  Arthralgia, TEAEs, Grade 2: 3 (18.8) n (%)
  Arthralgia, TEAEs, Grade ≥3: 0 n (%)
  Arthralgia, Treatment-related TEAEs, All Grades: 2 (12.5) n (%)
  Arthralgia, Treatment-related TEAEs, Grade 1: 1 (6.3) n (%)
  Arthralgia, Treatment-related TEAEs, Grade 2: 1 (6.3) n (%)
  Arthralgia, Treatment-related TEAEs, Grade ≥3: 0 n (%)
  Asthenia, TEAEs, All grades: 4 (25.0) n (%)
  Asthenia, TEAEs, Grade 1: 2 (12.5) n (%)
  Asthenia, TEAEs, Grade 2: 2 (12.5) n (%)
  Asthenia, TEAEs, Grade ≥3: 0 n (%)
  Asthenia, Treatment-related TEAEs, All Grades: 3 (18.8) n (%)
  Asthenia, Treatment-related TEAEs, Grade 1: 3 (18.8) n (%)
  Asthenia, Treatment-related TEAEs, Grade 2: 0 n (%)
  Asthenia, Treatment-related TEAEs, Grade ≥3: 0 n (%)
  Back pain, TEAEs, All grades: 3 (18.8) n (%)
  Back pain, TEAEs, Grade 1: 2 (12.5) n (%)
  Back pain, TEAEs, Grade 2: 0 n (%)
  Back pain, TEAEs, Grade ≥3: 1 (6.3) n (%)
  Back pain, Treatment-related TEAEs, All Grades: 1 (6.3) n (%)
  Back pain, Treatment-related TEAEs, Grade 1: 1 (6.3) n (%)
  Back pain, Treatment-related TEAEs, Grade 2: 0 n (%)
  Back pain, Treatment-related TEAEs, Grade ≥3: 0 n (%)
  Constipation, TEAEs, All grades: 6 (37.5) n (%)
  Constipation, TEAEs, Grade 1: 5 (31.3) n (%)
  Constipation, TEAEs, Grade 2: 1 (6.3) n (%)
  Constipation, TEAEs, Grade ≥3: 0 n (%)
  Constipation, Treatment-related TEAEs, All Grades: 3 (18.8) n (%)
  Constipation, Treatment-related TEAEs, Grade 1: 3 (18.8) n (%)
  Constipation, Treatment-related TEAEs, Grade 2: 0 n (%)
  Constipation, Treatment-related TEAEs, Grade ≥3: 0 n (%)
  Decreased appetite, TEAEs, All grades: 6 (37.5) n (%)
  Decreased appetite, TEAEs, Grade 1: 6 (37.5) n (%)
  Decreased appetite, TEAEs, Grade 2: 0 n (%)
  Decreased appetite, TEAEs, Grade ≥3: 0 n (%)
  Decreased appetite, Treatment-related TEAEs, All Grades: 3 (18.8) n (%)
  Decreased appetite, Treatment-related TEAEs, Grade 1: 3 (18.8) n (%)
  Decreased appetite, Treatment-related TEAEs, Grade 2: 0 n (%)
  Decreased appetite, Treatment-related TEAEs, Grade ≥3: 0 n (%)
  Diarrhea, TEAEs, All grades: 6 (37.5) n (%)
  Diarrhea, TEAEs, Grade 1: 5 (31.3) n (%)
  Diarrhea, TEAEs, Grade 2: 1 (6.3) n (%)
  Diarrhea, TEAEs, Grade ≥3: 0 n (%)
  Diarrhea, Treatment-related TEAEs, All Grades: 4 (25.0) n (%)
  Diarrhea, Treatment-related TEAEs, Grade 1: 3 (18.8) n (%)
  Diarrhea, Treatment-related TEAEs, Grade 2: 1 (6.3) n (%)
  Diarrhea, Treatment-related TEAEs, Grade ≥3: 0 n (%)
  Dyspnea, TEAEs, All grades: 4 (25.0) n (%)
  Dyspnea, TEAEs, Grade 1: 2 (12.5) n (%)
  Dyspnea, TEAEs, Grade 2: 1 (6.3) n (%)
  Dyspnea, TEAEs, Grade ≥3: 1 (6.3) n (%)
  Dyspnea, Treatment-related TEAEs, All Grades: 1 (6.3) n (%)
  Dyspnea, Treatment-related TEAEs, Grade 1: 1 (6.3) n (%)
  Dyspnea, Treatment-related TEAEs, Grade 2: 0 n (%)
  Dyspnea, Treatment-related TEAEs, Grade ≥3: 0 n (%)
  Fatigue, TEAEs, All grades: 4 (25.0) n (%)
  Fatigue, TEAEs, Grade 1: 3 (18.8) n (%)
  Fatigue, TEAEs, Grade 2: 0 n (%)
  Fatigue, TEAEs, Grade ≥3: 1 (6.3) n (%)
  Fatigue, Treatment-related TEAEs, All Grades: 2 (12.5) n (%)
  Fatigue, Treatment-related TEAEs, Grade 1: 2 (12.5) n (%)
  Fatigue, Treatment-related TEAEs, Grade 2: 0 n (%)
  Fatigue, Treatment-related TEAEs, Grade ≥3: 0 n (%)
  Hot flush, TEAEs, All grades: 6 (37.5) n (%)
  Hot flush, TEAEs, Grade 1: 6 (37.5) n (%)
  Hot flush, TEAEs, Grade 2: 0 n (%)
  Hot flush, TEAEs, Grade ≥3: 0 n (%)
  Hot flush, Treatment-related TEAEs, All Grades: 5 (31.3) n (%)
  Hot flush, Treatment-related TEAEs, Grade 1: 5 (31.3) n (%)
  Hot flush, Treatment-related TEAEs, Grade 2: 0 n (%)
  Hot flush, Treatment-related TEAEs, Grade ≥3: 0 n (%)
  Hypoesthesia, TEAEs, All grades: 3 (18.8) n (%)
  Hypoesthesia, TEAEs, Grade 1: 3 (18.8) n (%)
  Hypoesthesia, TEAEs, Grade 2: 0 n (%)
  Hypoesthesia, TEAEs, Grade ≥3: 0 n (%)
  Hypoesthesia, Treatment-related TEAEs, All Grades: 0 n (%)
  Hypoesthesia, Treatment-related TEAEs, Grade 1: 0 n (%)
  Hypoesthesia, Treatment-related TEAEs, Grade 2: 0 n (%)
  Hypoesthesia, Treatment-related TEAEs, Grade ≥3: 0 n (%)
  Nausea, TEAEs, All grades: 6 (37.5) n (%)
  Nausea, TEAEs, Grade 1: 3 (18.8) n (%)
  Nausea, TEAEs, Grade 2: 3 (18.8) n (%)
  Nausea, TEAEs, Grade ≥3: 0 n (%)
  Nausea, Treatment-related TEAEs, All Grades: 4 (25.0) n (%)
  Nausea, Treatment-related TEAEs, Grade 1: 3 (18.8) n (%)
  Nausea, Treatment-related TEAEs, Grade 2: 1 (6.3) n (%)
  Nausea, Treatment-related TEAEs, Grade ≥3: 0 n (%)
  Night sweat, TEAEs, All grades: 3 (18.8) n (%)
  Night sweat, TEAEs, Grade 1: 3 (18.8) n (%)
  Night sweat, TEAEs, Grade 2: 0 n (%)
  Night sweat, TEAEs, Grade ≥3: 0 n (%)
  Night sweat, Treatment-related TEAEs, All Grades: 3 (18.8) n (%)
  Night sweat, Treatment-related TEAEs, Grade 1: 3 (18.8) n (%)
  Night sweat, Treatment-related TEAEs, Grade 2: 0 n (%)
  Night sweat, Treatment-related TEAEs, Grade ≥3: 0 n (%)
  Urinary tract infection, TEAEs, All grades: 4 (25.0) n (%)
  Urinary tract infection, TEAEs, Grade 1: 0 n (%)
  Urinary tract infection, TEAEs, Grade 2: 3 (18.8) n (%)
  Urinary tract infection, TEAEs, Grade ≥3: 1 (6.3) n (%)
  Urinary tract infection, Treatment-related TEAEs, All Grades: 0 n (%)
  Urinary tract infection, Treatment-related TEAEs, Grade 1: 0 n (%)
  Urinary tract infection, Treatment-related TEAEs, Grade 2: 0 n (%)
  Urinary tract infection, Treatment-related TEAEs, Grade ≥3: 0 n (%)
Part A, Grade 1 palpitations and Grade 2 prolonged QT interval
  cardiac non-treatment-related TEAEs: 2 patients
Part A, Grade 1 photophobia
  eye disorder treatment-related TEAE: 1 patient
Part A, associated with disease progression, considered unrelated to amcenestrant
  serious TEAEs: three patients
Part B
  TEAE leading to treatment discontinuation: one Grade ≥3 TEAE of pneumonia led to treatment discontinuation
  eye disorder non-treatment-related TEAEs: Three eye disorder non-treatment-related TEAEs were reported in two patients
Part B / overall, by investigator
  serious TEAEs related to amcenestrant: none were considered related to amcenestrant; also recorded: No serious AEs were considered treatment-related
Part B, 400 mg QD (N = 49)
  ALT increased, TEAEs, All grades: 3 (6.1) n (%)
  ALT increased, TEAEs, Grade 1: 0 n (%)
  ALT increased, TEAEs, Grade 2: 0 n (%)
  ALT increased, TEAEs, Grade ≥3: 3 (6.1) n (%)
  ALT increased, Treatment-related TEAEs, All Grades: 0 n (%)
  ALT increased, Treatment-related TEAEs, Grade 1: 0 n (%)
  ALT increased, Treatment-related TEAEs, Grade 2: 0 n (%)
  ALT increased, Treatment-related TEAEs, Grade ≥3: 0 n (%)
  AST increased, TEAEs, All grades: 3 (6.1) n (%)
  AST increased, TEAEs, Grade 1: 0 n (%)
  AST increased, TEAEs, Grade 2: 0 n (%)
  AST increased, TEAEs, Grade ≥3: 3 (6.1) n (%)
  AST increased, Treatment-related TEAEs, All Grades: 0 n (%)
  AST increased, Treatment-related TEAEs, Grade 1: 0 n (%)
  AST increased, Treatment-related TEAEs, Grade 2: 0 n (%)
  AST increased, Treatment-related TEAEs, Grade ≥3: 0 n (%)
  Abdominal pain upper, TEAEs, All grades: 6 (12.2) n (%)
  Abdominal pain upper, TEAEs, Grade 1: 2 (4.1) n (%)
  Abdominal pain upper, TEAEs, Grade 2: 4 (8.2) n (%)
  Abdominal pain upper, TEAEs, Grade ≥3: 0 n (%)
  Abdominal pain upper, Treatment-related TEAEs, All Grades: 1 (2.0) n (%)
  Abdominal pain upper, Treatment-related TEAEs, Grade 1: 1 (2.0) n (%)
  Abdominal pain upper, Treatment-related TEAEs, Grade 2: 0 n (%)
  Abdominal pain upper, Treatment-related TEAEs, Grade ≥3: 0 n (%)
  Abdominal pain, TEAEs, All grades: 11 (22.4) n (%)
  Abdominal pain, TEAEs, Grade 1: 8 (16.3) n (%)
  Abdominal pain, TEAEs, Grade 2: 3 (6.1) n (%)
  Abdominal pain, TEAEs, Grade ≥3: 0 n (%)
  Abdominal pain, Treatment-related TEAEs, All Grades: 2 (4.1) n (%)
  Abdominal pain, Treatment-related TEAEs, Grade 1: 2 (4.1) n (%)
  Abdominal pain, Treatment-related TEAEs, Grade 2: 0 n (%)
  Abdominal pain, Treatment-related TEAEs, Grade ≥3: 0 n (%)
  Any TEAE, TEAEs, All grades: 49 (100) n (%)
  Any TEAE, TEAEs, Grade 1: 11 (22.4) n (%)
  Any TEAE, TEAEs, Grade 2: 22 (44.9) n (%)
  Any TEAE, TEAEs, Grade ≥3: 16 (32.7) n (%)
  Any TEAE, Treatment-related TEAEs, All Grades: 26 (53.1) n (%)
  Any TEAE, Treatment-related TEAEs, Grade 1: 21 (42.9) n (%)
  Any TEAE, Treatment-related TEAEs, Grade 2: 5 (10.2) n (%)
  Any TEAE, Treatment-related TEAEs, Grade ≥3: 0 n (%)
  Arthralgia, TEAEs, All grades: 10 (20.4) n (%)
  Arthralgia, TEAEs, Grade 1: 7 (14.3) n (%)
  Arthralgia, TEAEs, Grade 2: 3 (6.1) n (%)
  Arthralgia, TEAEs, Grade ≥3: 0 n (%)
  Arthralgia, Treatment-related TEAEs, All Grades: 4 (8.2) n (%)
  Arthralgia, Treatment-related TEAEs, Grade 1: 3 (6.1) n (%)
  Arthralgia, Treatment-related TEAEs, Grade 2: 1 (2.0) n (%)
  Arthralgia, Treatment-related TEAEs, Grade ≥3: 0 n (%)
  Asthenia, TEAEs, All grades: 10 (20.4) n (%)
  Asthenia, TEAEs, Grade 1: 7 (14.3) n (%)
  Asthenia, TEAEs, Grade 2: 3 (6.1) n (%)
  Asthenia, TEAEs, Grade ≥3: 0 n (%)
  Asthenia, Treatment-related TEAEs, All Grades: 2 (4.1) n (%)
  Asthenia, Treatment-related TEAEs, Grade 1: 2 (4.1) n (%)
  Asthenia, Treatment-related TEAEs, Grade 2: 0 n (%)
  Asthenia, Treatment-related TEAEs, Grade ≥3: 0 n (%)
